Laboratory results published in article PMC9823097, “Dysregulation of PRMT5 in chronic lymphocytic leukemia promotes progression with high risk of Richter’s transformation” (Nature Communications, 2023).
pIC50: −log10 of the molar value.

Assays:
[1] = target: T1, recombinant human PRMT5/MEP50 (Homo sapiens, UniProt O14744); assay: Filtration binding assay with recombinant human PRMT5/MEP50 (biochemical potency)
Method: For biochemical potency and selectivity, PRT382 was solubilized in 100% DMSO and diluted serially threefold. […] Standard reactions were performed in a total volume of 30 μl in assay buffer, with 300 nM histone H4-based AcH4-23 (Anaspec: AS-65002) as substrate. To this was added the PRMT5/MEP50 complex diluted to provide a final assay concentration of 2.5 nM, and the compounds were allowed to preincubate for 20 min at 37 °C. The reaction was initiated by adding S-[3 H-methyl]-adenosyl-L-methionine (PerkinElmer: NET155001MC) to a final concentration of 1 μM. Following a 30 min of incubation at 37 °C, the reaction was stopped by adding 25 μL of 8 M Guanidine HCl. To each reaction, 150 µL of SPA beads suspension (Perkinelmer: RPNQ0012) was added and incubated while shaking at room temperature for 30 min. The plate was centrifuged at 100 xg for 30 s before reading in a scintillation counter. IC50 values were determined by fitting the data to with Hill Slope using GraphPad Prism software (v9.2.0).

[2] = target: 38 other methyltransferases (e.g DNMTs, MLL1-4 complexes, EZH1 and EZH2 complexes, NRMTs, NSD, SUVs, SMYs, SETs, PRDM9), and other members of the PRMT family; assay: Methyltransferase selectivity panel, 3H-SAM radioligand with filtration binding; assay type: biochemical
Method: (§1) For in vitro assays, the compound was stored in a 10 mM solution in DMSO. For in vivo assays, PRT382 was dissolved in a 0.5% methylcellulose, 0.1% tween solution, and administered as oral gavage. For Pharmacokinetic studies, PRT382 was formulated in 0.5% carboxymethylcellulose sodium salt + 0.5%Tween80 as a 1 mg/mL suspension for 10 mg/kg and was administered in a 10 mL/kg dose volume by oral gavage to CD-1 mice. Blood was collected at various time points after dosing into EDTA-K2 tubes, placed on ice, and stored at −80 °C prior to analysis by LC-MS/MS. For biochemical potency and selectivity, PRT382 was solubilized in 100% DMSO and diluted serially threefold. For assessment of selectivity, enzyme activity against a panel of 37 methyltransferases was evaluated using 3H-SAM as a radioligand probe with filtration binding. PRT382 was tested in duplicate at a final concentration of 10 µM. The percent of enzyme activity relative to DMSO control condition was determined for each enzyme.

KARPAS-422 = assay: Anti-proliferative activity, MTS assay, KARPAS-422; assay type: cell-based; conditions: Homo sapiens, DLBCL, read-out: PRT382 IC50 (anti-proliferative)
Method: Cell proliferation was assessed via MTS (3-[4,5-dimethylthiazol-2-yl]-5-[3-carboxymethoxyphenyl]-2-[4-sulfophenyl]-2H-tetrazolium) assay (Sigma), using the tetrazolium dye […]. Cell apoptosis was evaluated by Annexin V-FITC or PE and propidium iodide (PI) staining using FC500 cytometer (Beckman-Coulter, Indianapolis, IN) following the manufacturer’s procedure (BD Pharmingen, Billerica, MA)[55]. For cell cycle analysis, cells were fixed with cold ethanol overnight and then stained before analysis with 30 μg/mL propidium iodide (Invitrogen) and 200 μg/mL RNase (Sigma-Aldrich) in 0.1 % v/v Triton X-100 (Sigma-Aldrich). Cell cycle data analysis was performed using ModFit LT software (Verity Software House, Topsham, ME).

[3] = Tolerability after 5 daily oral doses in WT CD-1 mice; assay type: in vivo; conditions: 10, 30 and 100 mg/kg
Method: as §1

HG3 cells = assay: Cell growth curves over 12 days, HG3; assay type: cell-based
Method: Live cells/mL were counted on days 3, 6, 10, and 12. […] The split factor was calculated at indicated time points by dividing the counted cells/mL by 3E5. Cell growth was extrapolated over time by multiplying the subsequent cell count by the previous split factor. Cell growth is plotted as fold change relative to DMSO-treated cells.

[4] = target: T1, recombinant human PRMT5/MEP50; assay: Filtration binding assay with recombinant human PRMT5/MEP50 (biochemical potency); conditions: histone H2A as the protein substrate
[5] = HG3, continuous exposure over 12 days

T1 sequence (O14744 whole entry): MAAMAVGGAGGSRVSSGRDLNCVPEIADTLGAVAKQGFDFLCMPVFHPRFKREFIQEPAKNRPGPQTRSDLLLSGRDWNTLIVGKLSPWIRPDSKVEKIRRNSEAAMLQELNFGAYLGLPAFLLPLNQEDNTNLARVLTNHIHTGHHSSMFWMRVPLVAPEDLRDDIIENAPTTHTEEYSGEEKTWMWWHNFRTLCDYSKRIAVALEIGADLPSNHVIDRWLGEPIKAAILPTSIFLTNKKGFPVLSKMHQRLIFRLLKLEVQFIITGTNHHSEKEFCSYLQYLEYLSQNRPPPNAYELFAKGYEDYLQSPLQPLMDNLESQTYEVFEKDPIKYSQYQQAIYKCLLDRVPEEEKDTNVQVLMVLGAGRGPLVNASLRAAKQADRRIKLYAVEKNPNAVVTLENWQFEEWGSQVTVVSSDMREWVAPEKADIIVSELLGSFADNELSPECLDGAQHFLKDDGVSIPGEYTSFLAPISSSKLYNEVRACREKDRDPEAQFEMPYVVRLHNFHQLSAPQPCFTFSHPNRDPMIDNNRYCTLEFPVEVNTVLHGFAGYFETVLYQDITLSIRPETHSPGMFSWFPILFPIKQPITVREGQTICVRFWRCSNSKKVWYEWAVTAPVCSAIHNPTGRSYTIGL
T1 sequence (Q9BQA1 whole entry partner): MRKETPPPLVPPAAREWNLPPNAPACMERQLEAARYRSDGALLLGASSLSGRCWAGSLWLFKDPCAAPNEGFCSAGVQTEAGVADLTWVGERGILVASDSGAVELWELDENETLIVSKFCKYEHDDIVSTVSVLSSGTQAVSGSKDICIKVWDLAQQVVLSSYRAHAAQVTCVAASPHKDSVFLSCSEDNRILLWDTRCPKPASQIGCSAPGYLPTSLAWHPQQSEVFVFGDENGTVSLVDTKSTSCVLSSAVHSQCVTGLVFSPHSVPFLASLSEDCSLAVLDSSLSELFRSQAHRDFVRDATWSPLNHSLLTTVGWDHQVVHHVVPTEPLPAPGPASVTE

With `CON=c1nc[nH]c2c1ccn2[C@@H]1O[C@H]([C@H](O)c2ccc(Cl)c(Cl)c2)[C@@H](O)[C@H]1O.Cl` [PRT382, (2 R,3 S,4 R,5 R)-2-[(R)-(3,4-dichlorophenyl)-hydroxy-methyl]-5-[(4Z)-4-methoxyimino-1H-pyrrolo[2,3-d]pyrimidin-7-yl]tetrahydrofuran-3,4-diol hydrochloride] the “PRT382 dose-response signal (Figure 6C; DMSO = 100.515)” value (shortened to “PRT382 dose-response signal”) ([1]; 508.1 pM) was 76.3419, the “PRT382 dose-response signal” value ([1]; 1.52416e-9 M) was 63.1814 and the “PRT382 dose-response signal” value ([1]; 4.57247e-9 M) was 38.5693. The “PRT382 dose-response signal” value ([1]; 1.37174e-8 M) was 22.7886, the “PRT382 dose-response signal” value ([1]; 4.11523e-8 M) was 12.7118 and the “PRT382 dose-response signal” value ([1]; 1.23457e-7 M) was 6.679. The “PRT382 dose-response signal” value ([1]; 3.7037e-7 M) was 2.863, the “PRT382 dose-response signal” value ([1]; 1.11111e-6 M) was 1.261 and the “PRT382 dose-response signal” value ([1]; 3.33333e-6 M) was 0.4291. For the same compound, the “PRT382 dose-response signal” value ([1]; 1e-5 M) was 0.1164, the pIC50 ([2]; 38 other methyltransferases and other PRMT family members, read-out: IC50 against other methyltransferases) was < 6.00 and the “inhibition of other tested methyltransferases” value ([2]; PRT382 at 10 uM) was ≤ 20%. For the same compound, the pIC50 (KARPAS-422) was 7.64, the tolerability [3] was “well-tolerated” and the observable toxicity ([3]; after 5 daily oral doses) was “without observable toxicity”. The “anti-proliferative potency compared to JNJ-64619178, LLY-283, and PF-06855800” value (HG3 cells; HG3) was “similar-to-reduced”, the “Rep 1 Live Cells [Fold Change]” value (HG3 cells; HG3, 1 nM, day 0) was 1 Fold Change and the “Rep 2 Live Cells [Fold Change]” value (HG3 cells; HG3, 1 nM, day 0) was 1 Fold Change. The “Rep 3 Live Cells [Fold Change]” value (HG3 cells; HG3, 1 nM, day 0) was 1 Fold Change, the “Rep 1 Live Cells [Fold Change]” value (HG3 cells; HG3, 1 nM, day 3) was 5.95 Fold Change and the “Rep 2 Live Cells [Fold Change]” value (HG3 cells; HG3, 1 nM, day 3) was 7.45 Fold Change. The “Rep 3 Live Cells [Fold Change]” value (HG3 cells; HG3, 1 nM, day 3) was 5.95 Fold Change, the “Rep 1 Live Cells [Fold Change]” value (HG3 cells; HG3, 1 nM, day 6) was 46.5092 Fold Change and the “Rep 2 Live Cells [Fold Change]” value (HG3 cells; HG3, 1 nM, day 6) was 44.5758 Fold Change. For the same compound, the “Rep 3 Live Cells [Fold Change]” value (HG3 cells; HG3, 1 nM, day 6) was 27.1717 Fold Change, the “Rep 1 Live Cells [Fold Change]” value (HG3 cells; HG3, 1 nM, day 10) was 425.559 Fold Change and the “Rep 2 Live Cells [Fold Change]” value (HG3 cells; HG3, 1 nM, day 10) was 463.589 Fold Change. The “Rep 3 Live Cells [Fold Change]” value (HG3 cells; HG3, 1 nM, day 10) was 237.752 Fold Change, the “Rep 1 Live Cells [Fold Change]” value (HG3 cells; HG3, 1 nM, day 12) was 1418.53 Fold Change and the “Rep 2 Live Cells [Fold Change]” value (HG3 cells; HG3, 1 nM, day 12) was 1486.57 Fold Change. For the same compound, the “Rep 3 Live Cells [Fold Change]” value (HG3 cells; HG3, 1 nM, day 12) was 1077.81 Fold Change, the “Rep 1 Live Cells [Fold Change]” value (HG3 cells; HG3, 10 nM, day 0) was 1 Fold Change and the “Rep 2 Live Cells [Fold Change]” value (HG3 cells; HG3, 10 nM, day 0) was 1 Fold Change. The “Rep 3 Live Cells [Fold Change]” value (HG3 cells; HG3, 10 nM, day 0) was 1 Fold Change, the “Rep 1 Live Cells [Fold Change]” value (HG3 cells; HG3, 10 nM, day 3) was 6.983 Fold Change and the “Rep 2 Live Cells [Fold Change]” value (HG3 cells; HG3, 10 nM, day 3) was 6.833 Fold Change. The “Rep 3 Live Cells [Fold Change]” value (HG3 cells; HG3, 10 nM, day 3) was 6.567 Fold Change, the “Rep 1 Live Cells [Fold Change]” value (HG3 cells; HG3, 10 nM, day 6) was 48.6506 Fold Change and the “Rep 2 Live Cells [Fold Change]” value (HG3 cells; HG3, 10 nM, day 6) was 58.5389 Fold Change. The “Rep 3 Live Cells [Fold Change]” value (HG3 cells; HG3, 10 nM, day 6) was 42.7928 Fold Change, the “Rep 1 Live Cells [Fold Change]” value (HG3 cells; HG3, 10 nM, day 10) was 471.91 Fold Change and the “Rep 2 Live Cells [Fold Change]” value (HG3 cells; HG3, 10 nM, day 10) was 680.515 Fold Change. For the same compound, the “Rep 3 Live Cells [Fold Change]” value (HG3 cells; HG3, 10 nM, day 10) was 419.369 Fold Change, the “Rep 1 Live Cells [Fold Change]” value (HG3 cells; HG3, 10 nM, day 12) was 1691.01 Fold Change and the “Rep 2 Live Cells [Fold Change]” value (HG3 cells; HG3, 10 nM, day 12) was 2381.8 Fold Change. For the same compound, the “Rep 3 Live Cells [Fold Change]” value (HG3 cells; HG3, 10 nM, day 12) was 2411.37 Fold Change, the “Rep 1 Live Cells [Fold Change]” value (HG3 cells; HG3, 100 nM, day 0) was 1 Fold Change and the “Rep 2 Live Cells [Fold Change]” value (HG3 cells; HG3, 100 nM, day 0) was 1 Fold Change. For the same compound, the “Rep 3 Live Cells [Fold Change]” value (HG3 cells; HG3, 100 nM, day 0) was 1 Fold Change, the “Rep 1 Live Cells [Fold Change]” value (HG3 cells; HG3, 100 nM, day 3) was 3.433 Fold Change and the “Rep 2 Live Cells [Fold Change]” value (HG3 cells; HG3, 100 nM, day 3) was 6.117 Fold Change. The “Rep 3 Live Cells [Fold Change]” value (HG3 cells; HG3, 100 nM, day 3) was 4.417 Fold Change, the “Rep 1 Live Cells [Fold Change]” value (HG3 cells; HG3, 100 nM, day 6) was 12.7033 Fold Change and the “Rep 2 Live Cells [Fold Change]” value (HG3 cells; HG3, 100 nM, day 6) was 20.7661 Fold Change. The “Rep 3 Live Cells [Fold Change]” value (HG3 cells; HG3, 100 nM, day 6) was 13.7726 Fold Change, the “Rep 1 Live Cells [Fold Change]” value (HG3 cells; HG3, 100 nM, day 10) was 31.282 Fold Change and the “Rep 2 Live Cells [Fold Change]” value (HG3 cells; HG3, 100 nM, day 10) was 112.137 Fold Change. For the same compound, the “Rep 3 Live Cells [Fold Change]” value (HG3 cells; HG3, 100 nM, day 10) was 30.472 Fold Change, the “Rep 1 Live Cells [Fold Change]” value (HG3 cells; HG3, 100 nM, day 12) was 66.0571 Fold Change and the “Rep 2 Live Cells [Fold Change]” value (HG3 cells; HG3, 100 nM, day 12) was 233.431 Fold Change. For the same compound, the “Rep 3 Live Cells [Fold Change]” value (HG3 cells; HG3, 100 nM, day 12) was 63.4325 Fold Change, the “Rep 1 Live Cells [Fold Change]” value (HG3 cells; HG3, 1 µM, day 0) was 1 Fold Change and the “Rep 2 Live Cells [Fold Change]” value (HG3 cells; HG3, 1 µM, day 0) was 1 Fold Change. The “Rep 3 Live Cells [Fold Change]” value (HG3 cells; HG3, 1 µM, day 0) was 1 Fold Change, the “Rep 1 Live Cells [Fold Change]” value (HG3 cells; HG3, 1 µM, day 3) was 3.05 Fold Change and the “Rep 2 Live Cells [Fold Change]” value (HG3 cells; HG3, 1 µM, day 3) was 6.15 Fold Change. For the same compound, the “Rep 3 Live Cells [Fold Change]” value (HG3 cells; HG3, 1 µM, day 3) was 3.933 Fold Change, the “Rep 1 Live Cells [Fold Change]” value (HG3 cells; HG3, 1 µM, day 6) was 3.162 Fold Change and the “Rep 2 Live Cells [Fold Change]” value (HG3 cells; HG3, 1 µM, day 6) was 4.9815 Fold Change. The “Rep 3 Live Cells [Fold Change]” value (HG3 cells; HG3, 1 µM, day 6) was 4.615 Fold Change, the “Rep 1 Live Cells [Fold Change]” value (HG3 cells; HG3, 1 µM, day 10) was 2.64 Fold Change and the “Rep 2 Live Cells [Fold Change]” value (HG3 cells; HG3, 1 µM, day 10) was 3.873 Fold Change. The “Rep 3 Live Cells [Fold Change]” value (HG3 cells; HG3, 1 µM, day 10) was 1.218 Fold Change, the “Rep 1 Live Cells [Fold Change]” value (HG3 cells; HG3, 1 µM, day 12) was 1.11 Fold Change and the “Rep 2 Live Cells [Fold Change]” value (HG3 cells; HG3, 1 µM, day 12) was 5.3136 Fold Change. The “Rep 3 Live Cells [Fold Change]” value (HG3 cells; HG3, 1 µM, day 12) was 0.1619 Fold Change, the “dose at which growth inhibition begins” value (HG3 cells; [5]) was 100 nM and the “effect on growth potential (cell growth)” value (HG3 cells; [5]) was “time and dose-dependent growth inhibition”. The pIC50 [4] was 8.55.
